Laboratory results from patent US20100008932A1, “USE OF SOLUBLE CD160 TO SUPPRESS IMMUNITY” (INSERM (Institut National de la Sante et de la Recherche …, priority 2006, published 2010).

Experiments:
[1] = system: release of soluble CD160 by IL-15-stimulated PB-NK cells; experiment: Anti-CD160 immunoprecipitation and immunoblotting of soluble CD160 in PB-NK cell culture supernatant; format: cell-based, human; conditions: IL-15-stimulated PB-NK cells cultured in the presence of 1,10-PNT; CL1-R2 immunoprecipitation and Western blot
Method: Culture medium (10 ml) from transfected COS7 cells was incubated with 5 μg of anti-Flag M2 mAb for 1 h 30 at 4° C., and immune complexes were collected with 20 μl of Protein G-Sepharose beads. Alternatively, 2×10^7 control or IL-15-activated PB-NK lymphocytes were cultured for 24-48 h in 10 ml of RPMI 1640 medium without serum. Culture supernatants were collected and incubated with CL1-R2 mAb (10 μg per test) followed by protein G-Sepharose beads. After washes, the precipitated proteins were separated by SDS-8% PAGE. The proteins were then transferred onto a nitrocellulose membrane and subjected to Western blot analysis using the anti-CD160 (CL1-R2, 5 μg/ml) or anti-Flag M2 (5 μg/ml) mAb. HRP-conjugated goat anti-mouse antibodies (Jackson Immunoresearch, Westgrove, Pa.) were used as secondary antibodies, and the immunoreactive proteins were visualized using an ECL kit (Amersham Biosciences).

[2] = system: CD160 cell surface expression on IL-15-activated PB-NK lymphocytes; experiment: Inhibition of the GPI-anchored CD160 cleavage: flow cytometry of membrane-bound CD160 on IL-15-activated PB-NK cells; format: cell-based, human; conditions: 8-12 h after 72 h IL-15, PB-NK cells, anti-CD160 mAb BY55 flow cytometry
Text: The antibodies used in this study were the following: anti-Flag M2 mAb (Sigma, St Quentin Fallavier, France), rabbit anti-GPI-phospholipase D (Caltag laboratories, Burlingame, Calif.), anti-CD56 mAb (Beckman-Coulter, Marseille, France), and anti-CD160 mAb (BY55 (IgM) and CL1-R2 (IgG1), produced locally). Irrelevant isotype-matched antibodies were used as negative controls. FITC- or PE-conjugated goat anti-mouse IgG or IgM (Beckman-Coulter), or coat anti-rabbit IgG (Caltag laboratories) were utilized as secondary reagents. Cells were phenotyped by indirect i munofluorescence. Briefly, the cells were incubated with the specific mAb for 30 min at 4° C., washed twice in PBS, and further incubated with the appropriated FITC- or PE-labeled secondary antibodies. After washing, cells were analyzed by flow cytometry on an EPICS XL apparatus (Beckman-Coulter). For intracellular staining, the cells were permeabilized in saponin buffer (PBS/0.1% BSA/0.1% saponin) (Sigma) prior to staining, and all subsequent steps were performed in saponin buffer, as described above.
The phospholipase inhibitors U73122, U73343 and 1,10 phenanthroline (1,10 PNT) were purchased from Sigma. 3×10^5/ml PB-NK cells were cultured for 72 h in RPMI 1640 supplemented with 10% heat-inactivated human serum, penicillin/streptomycin, L-glutamine and IL-15 (10 ng/ml; PeproTech, Levallois-Perret, France). […]

Row | SMILES | soluble CD160 protein band immunoprecipitated from culture supernatant [1] | effect on IL-15-induced down-modulation of CD160 cell surface expression ([2]; 1,10 PNT 10 μM) | effect on IL-15-induced down-modulation of CD160 cell surface expression ([2]; U73122 2 μM)
1 | O.c1cnc2c(c1)ccc1cccnc12 [1,10 PNT, 1,10-phenanthroline monohydrate] | no protein band is immunoprecipitated | partially impaired | 
2 | COc1ccc2c(c1)CC[C@@H]1[C@@H]2CC[C@]2(C)[C@@H](NCCCCCCN3C(=O)C=CC3=O)CC[C@@H]12 [U73122] |  |  | not affected
